Key:
[1] = target: T1, GST-RIPK2 fusion protein (human RIPK2, amino acids 1-310) (Homo sapiens, UniProt O43353); assay: RIPK2 binding competition assay (TR-FRET, Tracer 199 displacement); conditions: 10 nM Tracer 199, 1 nM GST-RIPK2, read-out: RIPK2 IC50
T1 construct: made in house; host or cells: baculovirus infected Sf9 cells
Summary of the method: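 IC50 derived from the TR-FRET emission ratio (665/620 nm, 337 nm excitation), normalized with no-inhibitor and no-enzyme controls. Incubation 45 min at 22 °C, pH 7.5 Tris buffer, with final 10 nM tracer, 1 nM Sf9-expressed GST-RIPK2 fragment (aa 1-310) and 0.5 nM Tb-labelled anti-GST.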

[2] = test system: NF-κB pathway (SEAP) in THP1-Dual cells; assay: THP-1 Dual cell SEAP assay (L18-MDP stimulated); format: cell-based; conditions: Homo sapiens, THP1-Dual, read-out: NF-κB THP1 IC50 bin
Summary of the method: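 IC50 values derive from non-linear regression of % inhibition, calculated against DMSO/L18-MDP-treated wells after media-only subtraction. NF-κB SEAP activity was read at OD 620-655 nm (QUANTI-Blue, 2 h, 37 °C) from supernatants of THP1-Dual cells. Cells had been compound-treated 30 min before overnight (20-24 h) stimulation with 10 ng/mL final L18-MDP.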

[3] = target: T2, binding of His-XIAP(BIR2)-avi fusion protein to GST-RIPK2 fusion protein (RIPK2/XIAP) (Homo sapiens, UniProt O43353); assay: RIPK2-XIAP binding competition PPI assay (TR-FRET); conditions: RIPK2/XIAP binding competition PPI assay; for Emax: Amax, read-out: PPI Amax bin; for IC50: read-out: PPI IC50 bin
T2 construct: made in house; host or cells: baculovirus infected Sf9 cells
T2 sequence (O43353 1-310 limits assumed): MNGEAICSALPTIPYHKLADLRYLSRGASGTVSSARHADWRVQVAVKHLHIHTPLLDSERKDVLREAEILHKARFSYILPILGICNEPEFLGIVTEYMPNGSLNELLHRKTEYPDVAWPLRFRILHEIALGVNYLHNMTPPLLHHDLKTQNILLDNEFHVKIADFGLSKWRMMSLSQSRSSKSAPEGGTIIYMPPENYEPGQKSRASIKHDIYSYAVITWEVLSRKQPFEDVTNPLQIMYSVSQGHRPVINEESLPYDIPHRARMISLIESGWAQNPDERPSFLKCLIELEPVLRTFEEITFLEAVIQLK
Summary of the method: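 Compounds (in DMSO, 100-fold stock) incubated 120 min at 23 °C with 1 nM GST-RIPK2 (aa 1-310) and 25 nM His-XIAP(BIR2 aa 152-231)-avi, plus anti-His-XL665 and anti-GST-Tb, in pH 7.5 Tris buffer. Read-out: 665/520 nm emission ratio. Normalized to no-inhibitor (0%) and 50 nM GSK583 (−100%); Amax binned A–D.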

T1 sequence (O43353 1-310): as the sequence (O43353 1-310 limits assumed) above

Compound: COc1cc2ncc(-c3ccc(NC(C)=O)nc3)n2cc1S(=O)(=O)C(C)(C)C [Example 8, N-(5-(6-(tert-butylsulfonyl)-7-methoxyimidazo[1,2-a]pyridin-3-yl)pyridin-2-yl)acetamide]
- IC50 [1]: > 20 nM
- IC50 [2]: > 1000 nM
- Emax [3]: < 30%
- IC50 [3]: > 20 nM

Compound: CC(C)(C)S(=O)(=O)c1cc2c(-c3cc(Cl)c(N)nc3F)cnn2cc1OCCO [Example 15, 2-((3-(6-amino-5-chloro-2-fluoropyridin-3-yl)-5-(tert-butylsulfonyl)pyrazolo[1,5-a]pyridin-6-yl)oxy)ethan-1-ol]
- IC50 [1]: 1 to 2.5 nM
- IC50 [2]: 50 to 250 nM
- Emax [3]: > 80%
- IC50 [3]: 1 to 2.5 nM

Compound: CC(C)(C)S(=O)(=O)c1cn2c(-c3cc(F)c(N)nc3F)cnc2cc1OCC1COC1 [Example 32, 5-(6-(tert-butylsulfonyl)-7-(oxetan-3-ylmethoxy)imidazo[1,2-a]pyridin-3-yl)-3,6-difluoropyridin-2-amine]
- IC50 [1]: 1 to 2.5 nM
- IC50 [2]: 50 to 250 nM
- Emax [3]: > 80%
- IC50 [3]: 2.5 to 20 nM

Compound: COc1cc2ncc(-c3cc4cc[nH]c4nc3F)n2cc1S(=O)(=O)C(C)(C)C [Example 216, 6-(tert-butylsulfonyl)-3-(6-fluoro-1H-pyrrolo[2,3-b]pyridin-5-yl)-7-methoxyimidazo[1,2-a]pyridine]
- IC50 [1]: < 1 nM
- IC50 [2]: < 50 nM
- Emax [3]: > 80%
- IC50 [3]: < 1 nM

Compound: CC(C)(C)S(=O)(=O)c1cn2c(-c3cc(F)c(N)nc3F)cnc2cc1C(=O)NCCO [Example 44, 3-(6-amino-2,5-difluoropyridin-3-yl)-6-(tert-butylsulfonyl)-N-(2-hydroxyethyl)imidazo[1,2-a]pyridine-7-carboxamide]
- IC50 [1]: > 20 nM
- IC50 [2]: > 1000 nM
- Emax [3]: > 80%
- IC50 [3]: > 20 nM

Compound: CC(CO)COc1cc2ncc(-c3cc(F)c(N)nc3F)n2cc1S(=O)(=O)C(C)(C)C (racemic) [Example 174, 3-((3-(6-amino-2,5-difluoropyridin-3-yl)-6-(tert-butylsulfonyl)imidazo[1,2-a]pyridin-7-yl)oxy)-2-methylpropan-1-ol]
- IC50 [1]: 1 to 2.5 nM
- IC50 [2]: 50 to 250 nM
- Emax [3]: > 80%
- IC50 [3]: 1 to 2.5 nM

Compound: COc1cc2ncc(-c3cc(F)c(N)nc3F)n2cc1S(=O)(=O)C1(C)CCNCC1 [Example 71, 3,6-difluoro-5-(7-methoxy-6-((4-methylpiperidin-4-yl)sulfonyl)imidazo[1,2-a]pyridin-3-yl)pyridin-2-amine]
- IC50 [1]: 2.5 to 20 nM
- IC50 [2]: > 1000 nM
- Emax [3]: > 80%
- IC50 [3]: 2.5 to 20 nM

Compound: CC(C)(C)S(=O)(=O)c1cn2c(-c3cc(Cl)c(N)nc3F)cnc2cc1OCC(=O)O [Example 299, 2-((3-(6-amino-5-chloro-2-fluoropyridin-3-yl)-6-(tert-butylsulfonyl)imidazo[1,2-a]pyridin-7-yl)oxy)acetic acid]
- IC50 [1]: > 20 nM
- IC50 [2]: > 1000 nM
- Emax [3]: > 80%
- IC50 [3]: > 20 nM

Compound: COc1cc2ncc(-c3cnn4ccccc34)n2cc1S(=O)(=O)C(C)(C)C [Example 112, 6-(tert-butylsulfonyl)-7-methoxy-3-(pyrazolo[1,5-a]pyridin-3-yl)imidazo[1,2-a]pyridine]
- IC50 [1]: > 20 nM
- IC50 [2]: > 1000 nM
- Emax [3]: < 30%
- IC50 [3]: > 20 nM

Compound: CC(C)(C)S(=O)(=O)c1cn2c(-c3cc(Cl)c(N)nc3F)cnc2cc1OCCO [Example 13, 2-((3-(6-amino-5-chloro-2-fluoropyridin-3-yl)-6-(tert-butylsulfonyl)imidazo[1,2-a]pyridin-7-yl)oxy)ethan-1-ol]
- IC50 [1]: 1 to 2.5 nM
- IC50 [2]: 50 to 250 nM
- Emax [3]: > 80%
- IC50 [3]: 1 to 2.5 nM

Compound: CC(C)(C)S(=O)(=O)c1cn2c(-c3cc(F)c(N)nc3F)cnc2cc1OCC1(O)COC1 [Example 38, 3-(((3-(6-amino-2,5-difluoropyridin-3-yl)-6-(tert-butylsulfonyl)imidazo[1,2-a]pyridin-7-yl)oxy)methyl)oxetan-3-ol]
- IC50 [1]: 1 to 2.5 nM
- IC50 [2]: 50 to 250 nM
- Emax [3]: > 80%
- IC50 [3]: 2.5 to 20 nM

Compound: COc1cc2ncc(-c3ccc4c(N)noc4c3)n2cc1S(=O)(=O)C(C)(C)C [Example 93, 6-(6-(tert-butylsulfonyl)-7-methoxyimidazo[1,2-a]pyridin-3-yl)benzo[d]isoxazol-3-amine]
- IC50 [1]: 2.5 to 20 nM
- IC50 [2]: 250 to 1000 nM
- Emax [3]: < 30%
- IC50 [3]: > 20 nM

Compound: C[C@H](O)COc1cn2ncc(-c3cc(F)c(N)nc3F)c2cc1S(=O)(=O)C(C)(C)C [Example 45, (S)-1-((3-(6-amino-2,5-difluoropyridin-3-yl)-5-(tert-butylsulfonyl)pyrazolo[1,5-a]pyridin-6-yl)oxy)propan-2-ol]
- IC50 [1]: 1 to 2.5 nM
- IC50 [2]: 50 to 250 nM
- Emax [3]: > 80%
- IC50 [3]: 1 to 2.5 nM

Compound: COc1cc2ncc(-c3cc(F)c(N)nc3F)n2cc1S(=O)(=O)N1CCOCC1 [Example 163, 3,6-difluoro-5-(7-methoxy-6-(morpholinosulfonyl)imidazo[1,2-a]pyridin-3-yl)pyridin-2-amine]
- IC50 [1]: > 20 nM
- IC50 [2]: > 1000 nM
- Emax [3]: > 80%
- IC50 [3]: > 20 nM

Compound: COc1cc2ncc(-c3cc(F)c(N)nc3F)n2cc1S(=O)(=O)C(C)(C)CCO [Example 62, 3-((3-(6-amino-2,5-difluoropyridin-3-yl)-7-methoxyimidazo[1,2-a]pyridin-6-yl)sulfonyl)-3-methylbutan-1-ol]
- IC50 [1]: 2.5 to 20 nM
- IC50 [2]: 250 to 1000 nM
- Emax [3]: > 80%
- IC50 [3]: 2.5 to 20 nM

Compound: CCCS(=O)(=O)Nc1cc(-c2cnc3cc(OC)c(S(=O)(=O)N4CCOCC4)cn23)cc(F)c1OC [Example 162, N-(3-fluoro-2-methoxy-5-(7-methoxy-6-(morpholinosulfonyl)imidazo[1,2-a]pyridin-3-yl)phenyl)propane-1-sulfonamide]
- IC50 [1]: 1 to 2.5 nM
- IC50 [2]: 50 to 250 nM
- Emax [3]: 55 to 80%
- IC50 [3]: 1 to 2.5 nM

Compound: OCCCNc1cc(-c2cnn3ccc(C(F)(F)F)cc23)cc(F)n1 [Example 6, 3-((6-fluoro-4-(5-(trifluoromethyl)pyrazolo[1,5-a]pyridin-3-yl)pyridin-2-yl)amino)propan-1-ol]
- IC50 [1]: 2.5 to 20 nM
- IC50 [2]: 50 to 250 nM
- Emax [3]: < 30%
- IC50 [3]: > 20 nM

Compound: COc1cc2ncc(-c3cc(F)c(N)nc3F)n2cc1S(=O)(=O)c1cn[nH]c1 [Example 78, 5-(6-((1H-pyrazol-4-yl)sulfonyl)-7-methoxyimidazo[1,2-a]pyridin-3-yl)-3,6-difluoropyridin-2-amine]
- IC50 [1]: 2.5 to 20 nM
- IC50 [2]: > 1000 nM
- Emax [3]: > 80%
- IC50 [3]: 2.5 to 20 nM

Compound: CC(C)(C)S(=O)(=O)c1cn2c(-c3cc(F)c(N)nc3F)cnc2cc1OCCN1CCOCC1 [Example 18, 5-(6-(tert-butylsulfonyl)-7-(2-morpholinoethoxy)imidazo[1,2-a]pyridin-3-yl)-3,6-difluoropyridin-2-amine]
- IC50 [1]: 2.5 to 20 nM
- IC50 [2]: 250 to 1000 nM
- Emax [3]: > 80%
- IC50 [3]: 2.5 to 20 nM

Compound: COc1cc2ncc(-c3cnn4ncccc34)n2cc1S(=O)(=O)C(C)(C)C [Example 114, 3-(6-(tert-butylsulfonyl)-7-methoxyimidazo[1,2-a]pyridin-3-yl)pyrazolo[1,5-b]pyridazine]
- IC50 [1]: > 20 nM
- IC50 [2]: > 1000 nM
- Emax [3]: < 30%
- IC50 [3]: > 20 nM

Compound: COc1cc2ncc(-c3cccc(NS(=O)(=O)C4CCNC4)c3)n2cc1S(=O)(=O)C(C)(C)C (stereo not drawn) [Example 154, N-(3-(6-(tert-butylsulfonyl)-7-methoxyimidazo[1,2-a]pyridin-3-yl)phenyl)pyrrolidine-3-sulfonamide]
- IC50 [1]: 2.5 to 20 nM
- IC50 [2]: > 1000 nM
- Emax [3]: > 80%
- IC50 [3]: 2.5 to 20 nM

Compound: COc1c(F)cc(-c2cnc3cc(OC[C@@H](C)O)c(S(=O)(=O)C(C)(C)C)cn23)cc1NS(=O)(=O)c1cnn(C)c1 [Example 253, (R)-N-(5-(6-(tert-butylsulfonyl)-7-(2-hydroxypropoxy)imidazo [1,2-a]pyridin-3-yl)-3-fluoro-2-methoxyphenyl)-1-methyl-1H-pyrazole-4-sulfonamide]
- IC50 [1]: 1 to 2.5 nM
- IC50 [2]: < 50 nM
- Emax [3]: > 80%
- IC50 [3]: < 1 nM

Compound: COc1cc2ncc(-c3cnc4c(c3)OCC4O)n2cc1S(=O)(=O)C(C)(C)C (stereo not drawn) [Example 87, 6-(6-(tert-butylsulfonyl)-7-methoxyimidazo[1,2-a]pyridin-3-yl)-2,3-dihydrofuro[3,2-b]pyridin-3-ol]
- IC50 [1]: > 20 nM
- IC50 [2]: > 1000 nM
- Emax [3]: 30 to 55%
- IC50 [3]: > 20 nM

Compound: CC(C)(C)S(=O)(=O)c1cn2c(-c3cc(F)c(N)nc3F)cnc2cc1OC1COC1 [Example 33, 5-(6-(tert-butylsulfonyl)-7-(oxetan-3-yloxy)imidazo[1,2-a]pyridin-3-yl)-3,6-difluoropyridin-2-amine]
- IC50 [1]: 2.5 to 20 nM
- IC50 [2]: > 1000 nM
- Emax [3]: > 80%
- IC50 [3]: 2.5 to 20 nM

— patent publication US20260137706A1, “METHODS OF TREATING INFLAMMATORY DISEASES” (INTERLINE THERAPEUTICS, INC., priority 2023, published 2026)
